In ChEMBL document CHEMBL1201862, “PubChem BioAssay data set” (2004):
Active and inactive are the calls of the source.

Assays:
[1] = target: Tyrosine-protein phosphatase non-receptor type 7 (Homo sapiens, UniProt P35236); format: functional
Protein skinhead-1 = target: T1, Protein skinhead-1 (Caenorhabditis elegans, UniProt P34707); format: functional
T1 sequence (P34707 whole entry): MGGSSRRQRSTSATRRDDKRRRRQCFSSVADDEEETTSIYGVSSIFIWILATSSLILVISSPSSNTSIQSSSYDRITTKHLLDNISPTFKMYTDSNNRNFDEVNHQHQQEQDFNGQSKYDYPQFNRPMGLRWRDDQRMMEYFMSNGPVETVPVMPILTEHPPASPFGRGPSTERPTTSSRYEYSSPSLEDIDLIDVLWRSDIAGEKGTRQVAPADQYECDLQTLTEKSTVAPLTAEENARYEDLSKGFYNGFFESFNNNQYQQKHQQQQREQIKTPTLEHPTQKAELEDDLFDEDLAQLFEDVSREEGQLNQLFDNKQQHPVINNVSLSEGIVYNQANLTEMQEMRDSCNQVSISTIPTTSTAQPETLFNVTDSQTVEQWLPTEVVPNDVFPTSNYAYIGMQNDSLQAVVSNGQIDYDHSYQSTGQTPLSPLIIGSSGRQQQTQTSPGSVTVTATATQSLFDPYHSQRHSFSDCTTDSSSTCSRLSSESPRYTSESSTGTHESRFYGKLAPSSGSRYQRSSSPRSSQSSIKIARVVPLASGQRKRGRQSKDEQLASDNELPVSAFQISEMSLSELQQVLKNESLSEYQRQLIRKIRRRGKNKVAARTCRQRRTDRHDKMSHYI

[2] = target: T2, Dual specificity protein phosphatase 6 (Rattus norvegicus, UniProt Q64346); format: functional
T2 sequence (Q64346 whole entry): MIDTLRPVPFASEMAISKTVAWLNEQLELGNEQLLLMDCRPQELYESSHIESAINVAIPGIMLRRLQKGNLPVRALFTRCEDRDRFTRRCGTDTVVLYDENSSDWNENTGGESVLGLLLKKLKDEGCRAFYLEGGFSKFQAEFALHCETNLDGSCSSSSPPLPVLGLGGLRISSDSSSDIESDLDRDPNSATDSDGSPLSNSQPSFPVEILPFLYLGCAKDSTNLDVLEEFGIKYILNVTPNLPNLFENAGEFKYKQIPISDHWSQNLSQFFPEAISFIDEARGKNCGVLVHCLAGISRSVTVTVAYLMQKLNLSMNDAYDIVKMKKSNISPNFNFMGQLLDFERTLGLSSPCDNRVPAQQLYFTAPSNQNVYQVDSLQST

[3] = target: Glyceraldehyde-3-phosphate dehydrogenase (Homo sapiens, UniProt P04406)
Glyceraldehyde-3-phosphate dehydrogenase, sequence (P04406 whole entry): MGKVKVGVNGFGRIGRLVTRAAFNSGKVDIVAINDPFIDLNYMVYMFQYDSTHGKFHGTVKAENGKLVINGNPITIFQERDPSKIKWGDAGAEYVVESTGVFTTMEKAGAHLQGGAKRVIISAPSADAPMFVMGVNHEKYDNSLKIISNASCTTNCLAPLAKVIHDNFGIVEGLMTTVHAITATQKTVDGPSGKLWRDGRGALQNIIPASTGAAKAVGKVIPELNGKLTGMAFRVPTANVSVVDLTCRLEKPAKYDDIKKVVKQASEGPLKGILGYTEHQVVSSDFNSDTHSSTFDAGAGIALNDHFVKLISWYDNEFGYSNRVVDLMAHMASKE

[4] = target: T2, Dual specificity protein phosphatase 6
[5] = target: Peroxisome proliferator-activated receptor gamma/Nuclear receptor coactivator 3 (Homo sapiens, UniProt P37231); format: functional;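 also: agonist potency for raising coactivator recruitment to the receptor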
[6] = target: Peroxisome proliferator-activated receptor gamma/Nuclear receptor coactivator 2 (Homo sapiens, UniProt P37231); format: functional;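 also: agonist potency for raising coactivator recruitment to the receptor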
Peroxisome proliferator-activated receptor gamma/Nuclear receptor coactivator 2, sequence (P37231 whole entry): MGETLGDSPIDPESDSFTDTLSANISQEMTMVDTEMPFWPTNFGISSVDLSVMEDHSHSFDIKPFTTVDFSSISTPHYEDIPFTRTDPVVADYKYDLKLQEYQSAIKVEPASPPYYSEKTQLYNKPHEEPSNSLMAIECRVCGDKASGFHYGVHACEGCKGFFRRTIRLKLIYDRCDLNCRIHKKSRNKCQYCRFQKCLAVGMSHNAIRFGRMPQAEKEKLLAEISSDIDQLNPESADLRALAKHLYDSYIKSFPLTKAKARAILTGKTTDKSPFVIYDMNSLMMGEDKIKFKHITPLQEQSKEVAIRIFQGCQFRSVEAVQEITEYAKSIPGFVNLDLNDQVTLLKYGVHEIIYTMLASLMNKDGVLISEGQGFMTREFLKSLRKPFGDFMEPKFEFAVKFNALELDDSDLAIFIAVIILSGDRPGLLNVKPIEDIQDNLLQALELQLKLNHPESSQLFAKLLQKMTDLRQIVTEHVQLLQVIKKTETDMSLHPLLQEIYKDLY
Peroxisome proliferator-activated receptor gamma/Nuclear receptor coactivator 2, sequence (Q15596 whole entry, further chain): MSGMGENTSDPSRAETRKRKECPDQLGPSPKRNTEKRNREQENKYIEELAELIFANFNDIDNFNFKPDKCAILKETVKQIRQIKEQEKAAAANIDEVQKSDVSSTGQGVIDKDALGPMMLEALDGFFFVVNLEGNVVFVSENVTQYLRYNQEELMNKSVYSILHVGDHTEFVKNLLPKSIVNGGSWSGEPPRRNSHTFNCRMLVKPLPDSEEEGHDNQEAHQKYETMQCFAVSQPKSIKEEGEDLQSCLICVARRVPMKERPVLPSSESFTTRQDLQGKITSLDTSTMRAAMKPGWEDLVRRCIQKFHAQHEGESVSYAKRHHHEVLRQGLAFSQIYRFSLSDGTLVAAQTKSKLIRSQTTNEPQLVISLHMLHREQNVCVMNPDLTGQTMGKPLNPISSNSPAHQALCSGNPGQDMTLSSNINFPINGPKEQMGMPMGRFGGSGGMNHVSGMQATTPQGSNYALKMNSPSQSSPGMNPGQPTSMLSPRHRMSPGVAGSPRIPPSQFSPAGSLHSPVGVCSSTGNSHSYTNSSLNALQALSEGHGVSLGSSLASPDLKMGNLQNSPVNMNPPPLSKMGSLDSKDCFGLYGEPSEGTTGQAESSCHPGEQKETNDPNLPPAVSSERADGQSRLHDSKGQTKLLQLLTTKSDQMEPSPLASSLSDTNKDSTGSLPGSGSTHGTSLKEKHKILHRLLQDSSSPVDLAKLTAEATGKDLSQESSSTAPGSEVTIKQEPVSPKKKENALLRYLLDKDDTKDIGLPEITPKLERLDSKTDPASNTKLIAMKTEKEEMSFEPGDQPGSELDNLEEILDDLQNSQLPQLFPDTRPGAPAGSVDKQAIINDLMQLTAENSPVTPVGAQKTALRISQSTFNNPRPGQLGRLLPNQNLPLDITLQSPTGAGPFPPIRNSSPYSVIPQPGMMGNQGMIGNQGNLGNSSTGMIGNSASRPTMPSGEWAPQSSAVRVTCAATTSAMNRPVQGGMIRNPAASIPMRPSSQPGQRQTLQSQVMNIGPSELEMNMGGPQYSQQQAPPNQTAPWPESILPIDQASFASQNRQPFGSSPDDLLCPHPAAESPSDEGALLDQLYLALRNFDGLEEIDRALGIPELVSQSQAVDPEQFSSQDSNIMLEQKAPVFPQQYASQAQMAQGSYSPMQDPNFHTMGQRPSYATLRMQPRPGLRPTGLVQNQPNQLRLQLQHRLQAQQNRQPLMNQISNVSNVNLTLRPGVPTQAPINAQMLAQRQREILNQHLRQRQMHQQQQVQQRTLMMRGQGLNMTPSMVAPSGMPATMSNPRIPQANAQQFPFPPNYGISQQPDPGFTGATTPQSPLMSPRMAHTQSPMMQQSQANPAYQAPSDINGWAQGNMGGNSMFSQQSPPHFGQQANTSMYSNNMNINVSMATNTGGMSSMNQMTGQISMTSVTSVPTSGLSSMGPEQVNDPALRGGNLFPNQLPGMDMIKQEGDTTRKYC

[7] = target: Peroxisome proliferator-activated receptor gamma/Nuclear receptor coactivator 1 (Homo sapiens, UniProt P37231); format: functional;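 also: agonist potency as compounds enhance coactivator SRC-1 recruitment to PPARgamma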
Peroxisome proliferator-activated receptor gamma/Nuclear receptor coactivator 1, sequence (P37231 whole entry): as the sequence (P37231 whole entry) above
Peroxisome proliferator-activated receptor gamma/Nuclear receptor coactivator 1, sequence (Q15788 whole entry, further chain): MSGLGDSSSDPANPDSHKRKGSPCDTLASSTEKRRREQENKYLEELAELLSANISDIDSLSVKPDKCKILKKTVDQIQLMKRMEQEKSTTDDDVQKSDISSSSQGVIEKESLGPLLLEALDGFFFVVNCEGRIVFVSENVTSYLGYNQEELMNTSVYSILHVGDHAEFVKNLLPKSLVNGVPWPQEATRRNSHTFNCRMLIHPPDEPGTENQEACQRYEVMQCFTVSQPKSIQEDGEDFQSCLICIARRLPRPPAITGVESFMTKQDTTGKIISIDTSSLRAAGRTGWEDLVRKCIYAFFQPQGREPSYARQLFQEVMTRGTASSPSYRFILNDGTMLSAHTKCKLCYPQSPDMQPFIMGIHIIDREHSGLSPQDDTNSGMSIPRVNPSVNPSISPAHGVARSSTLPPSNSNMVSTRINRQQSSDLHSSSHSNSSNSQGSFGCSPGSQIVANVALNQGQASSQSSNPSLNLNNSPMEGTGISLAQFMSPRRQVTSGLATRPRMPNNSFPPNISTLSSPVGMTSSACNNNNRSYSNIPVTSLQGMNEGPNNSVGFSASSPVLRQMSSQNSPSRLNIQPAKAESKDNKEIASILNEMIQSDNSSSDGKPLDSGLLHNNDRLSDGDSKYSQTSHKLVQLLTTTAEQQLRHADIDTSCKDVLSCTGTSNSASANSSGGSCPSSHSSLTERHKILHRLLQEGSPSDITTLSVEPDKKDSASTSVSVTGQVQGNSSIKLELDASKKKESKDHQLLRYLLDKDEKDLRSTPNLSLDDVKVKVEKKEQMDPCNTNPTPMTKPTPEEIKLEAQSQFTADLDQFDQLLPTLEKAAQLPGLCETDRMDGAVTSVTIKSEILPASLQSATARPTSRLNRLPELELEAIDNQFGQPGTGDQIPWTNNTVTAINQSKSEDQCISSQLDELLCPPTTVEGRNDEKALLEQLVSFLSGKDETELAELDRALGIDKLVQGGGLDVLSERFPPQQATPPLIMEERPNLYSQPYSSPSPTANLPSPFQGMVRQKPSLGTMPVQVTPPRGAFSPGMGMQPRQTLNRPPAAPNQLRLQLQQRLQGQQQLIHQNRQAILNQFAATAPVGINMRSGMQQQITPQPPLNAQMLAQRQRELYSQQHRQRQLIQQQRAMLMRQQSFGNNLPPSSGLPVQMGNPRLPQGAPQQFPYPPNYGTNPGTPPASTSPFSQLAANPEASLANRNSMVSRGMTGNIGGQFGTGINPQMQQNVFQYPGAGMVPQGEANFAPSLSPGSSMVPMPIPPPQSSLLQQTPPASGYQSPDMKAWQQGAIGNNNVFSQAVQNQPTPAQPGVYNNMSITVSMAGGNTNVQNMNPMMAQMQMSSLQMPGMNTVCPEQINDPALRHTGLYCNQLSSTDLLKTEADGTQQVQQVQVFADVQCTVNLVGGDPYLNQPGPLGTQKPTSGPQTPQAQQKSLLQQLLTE

Estrogen receptor = Estrogen receptor (Homo sapiens, UniProt P03372);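 also: potency for inhibiting coactivator peptide recruitment to the receptor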
Estrogen receptor, sequence (P03372 whole entry): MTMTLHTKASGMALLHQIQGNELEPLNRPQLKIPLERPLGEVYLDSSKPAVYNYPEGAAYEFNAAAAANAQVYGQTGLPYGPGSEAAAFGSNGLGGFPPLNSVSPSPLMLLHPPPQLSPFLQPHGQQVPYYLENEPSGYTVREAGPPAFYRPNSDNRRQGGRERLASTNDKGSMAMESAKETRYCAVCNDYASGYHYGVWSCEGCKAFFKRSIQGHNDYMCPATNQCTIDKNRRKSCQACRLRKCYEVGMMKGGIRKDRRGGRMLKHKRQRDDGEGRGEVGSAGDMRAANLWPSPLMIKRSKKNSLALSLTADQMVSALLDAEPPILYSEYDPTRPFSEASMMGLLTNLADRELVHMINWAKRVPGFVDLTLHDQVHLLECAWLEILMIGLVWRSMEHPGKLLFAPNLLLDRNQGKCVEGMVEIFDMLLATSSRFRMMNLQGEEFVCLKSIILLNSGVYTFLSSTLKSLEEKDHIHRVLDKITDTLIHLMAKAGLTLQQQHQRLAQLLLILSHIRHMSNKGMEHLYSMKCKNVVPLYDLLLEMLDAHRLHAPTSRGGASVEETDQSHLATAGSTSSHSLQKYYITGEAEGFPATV

Aspartyl aminopeptidase = target: T3, Aspartyl aminopeptidase (Plasmodium falciparum 3D7, UniProt Q8I2J3); assay: Counterscreen for inhibitors of M1 and M17 aminopeptidases: QFRET-based biochemical high throughput dose response assay for inhibitors of the Plasmodium falciparum M18 Aspartyl Aminopeptidase (PFM18AAP). [Related PubChem assays: 1619 (Screening assay (M17LAP inhibitors).), 1445 (Screening assay (M1AAP inhibitors).)]
T3 sequence (Q8I2J3 whole entry): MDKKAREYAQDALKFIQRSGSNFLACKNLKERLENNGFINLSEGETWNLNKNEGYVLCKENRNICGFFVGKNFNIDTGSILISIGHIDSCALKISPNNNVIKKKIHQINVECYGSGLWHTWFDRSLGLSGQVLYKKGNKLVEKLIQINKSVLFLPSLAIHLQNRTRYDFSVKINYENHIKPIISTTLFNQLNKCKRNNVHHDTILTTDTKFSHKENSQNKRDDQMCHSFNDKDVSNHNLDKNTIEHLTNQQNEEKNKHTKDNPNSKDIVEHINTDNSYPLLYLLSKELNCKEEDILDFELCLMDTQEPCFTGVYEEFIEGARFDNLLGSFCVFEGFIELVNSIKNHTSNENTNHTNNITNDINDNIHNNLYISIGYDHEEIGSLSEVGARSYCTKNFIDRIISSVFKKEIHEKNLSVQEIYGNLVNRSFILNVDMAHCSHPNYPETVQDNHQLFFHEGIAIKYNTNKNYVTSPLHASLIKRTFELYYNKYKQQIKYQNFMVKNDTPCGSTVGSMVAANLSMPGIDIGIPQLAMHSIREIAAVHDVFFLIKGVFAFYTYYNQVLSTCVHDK

[8] = target: T4, Sentrin-specific protease 8 (Homo sapiens, UniProt Q96LD8); format: functional
T4 sequence (Q96LD8 whole entry): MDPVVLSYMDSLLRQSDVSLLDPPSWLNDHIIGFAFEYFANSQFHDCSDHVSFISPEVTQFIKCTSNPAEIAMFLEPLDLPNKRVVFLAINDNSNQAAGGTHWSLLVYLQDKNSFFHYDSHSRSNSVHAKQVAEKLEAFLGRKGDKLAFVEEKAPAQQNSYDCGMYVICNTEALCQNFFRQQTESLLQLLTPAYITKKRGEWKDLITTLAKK

Leucine aminopeptidase = target: T5, Leucine aminopeptidase (Plasmodium falciparum 3D7, UniProt Q8IL11); assay: P. falciparum M17LAP inhibitors, primary screen, biochemical, fluorogenic H-Leu-NHMec substrate, 1536-well (AID 1619); format: functional
T5 sequence (Q8IL11 whole entry): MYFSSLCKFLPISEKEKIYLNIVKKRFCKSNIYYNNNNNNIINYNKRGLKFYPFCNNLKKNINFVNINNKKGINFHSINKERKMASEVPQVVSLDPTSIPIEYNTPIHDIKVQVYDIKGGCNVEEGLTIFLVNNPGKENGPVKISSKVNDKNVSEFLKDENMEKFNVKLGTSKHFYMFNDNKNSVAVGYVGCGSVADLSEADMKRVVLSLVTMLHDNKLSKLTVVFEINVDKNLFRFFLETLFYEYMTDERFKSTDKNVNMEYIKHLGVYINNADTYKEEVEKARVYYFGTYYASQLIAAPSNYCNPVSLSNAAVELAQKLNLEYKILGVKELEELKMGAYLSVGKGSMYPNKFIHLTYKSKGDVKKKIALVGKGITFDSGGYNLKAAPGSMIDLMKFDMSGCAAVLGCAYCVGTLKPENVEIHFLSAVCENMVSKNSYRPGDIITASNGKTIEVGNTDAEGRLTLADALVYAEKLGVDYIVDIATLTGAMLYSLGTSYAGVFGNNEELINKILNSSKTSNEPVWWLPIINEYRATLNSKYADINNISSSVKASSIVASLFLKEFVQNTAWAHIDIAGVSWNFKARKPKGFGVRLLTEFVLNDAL

Procathepsin L = Procathepsin L (Homo sapiens, UniProt P07711); assay: CTSL1 protease inhibition – biochemical, QFRET, 1536-well, counter-screen for M1/M17 aminopeptidase inhibitor project, dose response (AID 2214)
[9] = target: T4, Sentrin-specific protease 8; format: functional; remark: listed apart in the source
[10] = target: T6, Replicative DNA helicase DnaB (Mycobacterium tuberculosis, UniProt P9WMR3); assay: DnaB intein splicing inhibitors, dose response, biochemical, cell-free fluorescence (AID 449749); format: functional
T6 sequence (P9WMR3 whole entry): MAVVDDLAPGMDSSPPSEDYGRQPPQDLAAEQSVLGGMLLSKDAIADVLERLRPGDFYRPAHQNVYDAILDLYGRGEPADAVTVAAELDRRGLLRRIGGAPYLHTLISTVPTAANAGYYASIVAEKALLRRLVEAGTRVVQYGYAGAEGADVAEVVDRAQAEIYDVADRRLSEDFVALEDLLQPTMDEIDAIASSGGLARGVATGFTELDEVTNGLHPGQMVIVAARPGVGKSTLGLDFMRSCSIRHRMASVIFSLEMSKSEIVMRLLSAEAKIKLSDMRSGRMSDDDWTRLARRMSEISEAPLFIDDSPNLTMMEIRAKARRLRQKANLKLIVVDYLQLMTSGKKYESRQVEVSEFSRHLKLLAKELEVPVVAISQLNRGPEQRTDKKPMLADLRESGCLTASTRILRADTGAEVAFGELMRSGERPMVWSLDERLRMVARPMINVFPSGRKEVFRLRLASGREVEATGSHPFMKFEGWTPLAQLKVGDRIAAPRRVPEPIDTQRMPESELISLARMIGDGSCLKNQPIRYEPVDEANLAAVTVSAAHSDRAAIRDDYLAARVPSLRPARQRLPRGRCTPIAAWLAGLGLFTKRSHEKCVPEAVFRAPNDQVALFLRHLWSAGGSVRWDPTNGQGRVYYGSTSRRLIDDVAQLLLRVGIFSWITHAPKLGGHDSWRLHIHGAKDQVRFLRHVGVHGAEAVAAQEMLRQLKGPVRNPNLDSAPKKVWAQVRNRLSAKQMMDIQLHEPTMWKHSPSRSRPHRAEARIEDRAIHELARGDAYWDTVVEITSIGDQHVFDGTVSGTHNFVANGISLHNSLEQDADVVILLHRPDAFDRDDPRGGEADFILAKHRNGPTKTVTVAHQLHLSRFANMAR

Protein RecA = target: T7, Protein RecA (Mycobacterium tuberculosis, UniProt P9WHJ3); assay: Fluorescence Cell-Free Homogeneous Dose Retest to Identify Inhibitors of RecA-Intein Splicing Activity. [Related pubchem assays (depositor defined):AID2097, AID2223, AID489010, AID492950]; format: functional
T7 sequence (P9WHJ3 whole entry): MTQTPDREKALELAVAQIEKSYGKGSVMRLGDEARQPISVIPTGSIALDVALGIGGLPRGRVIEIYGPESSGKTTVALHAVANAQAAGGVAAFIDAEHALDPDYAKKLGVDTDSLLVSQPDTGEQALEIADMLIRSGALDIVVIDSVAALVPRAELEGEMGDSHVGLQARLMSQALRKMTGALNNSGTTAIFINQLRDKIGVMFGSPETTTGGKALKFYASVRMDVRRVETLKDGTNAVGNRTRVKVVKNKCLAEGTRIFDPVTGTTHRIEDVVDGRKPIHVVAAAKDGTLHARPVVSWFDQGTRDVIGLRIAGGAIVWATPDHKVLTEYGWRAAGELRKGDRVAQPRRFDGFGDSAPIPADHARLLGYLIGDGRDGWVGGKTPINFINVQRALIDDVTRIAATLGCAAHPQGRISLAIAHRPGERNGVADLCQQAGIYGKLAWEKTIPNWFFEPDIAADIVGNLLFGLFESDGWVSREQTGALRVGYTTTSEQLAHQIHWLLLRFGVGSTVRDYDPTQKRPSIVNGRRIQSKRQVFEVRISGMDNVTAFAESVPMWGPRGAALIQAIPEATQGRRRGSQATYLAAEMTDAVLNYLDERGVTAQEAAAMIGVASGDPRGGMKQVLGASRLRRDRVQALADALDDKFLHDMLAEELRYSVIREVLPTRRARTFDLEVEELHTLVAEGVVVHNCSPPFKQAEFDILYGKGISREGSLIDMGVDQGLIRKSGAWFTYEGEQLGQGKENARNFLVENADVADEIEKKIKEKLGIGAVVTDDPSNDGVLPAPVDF

[11] = target: DNA dC->dU-editing enzyme APOBEC-3G (Homo sapiens, UniProt Q9HC16); assay: Dose Response confirmation of small molecule APOBEC3G DNA Deaminase Inhibitors via a fluorescence-based single-stranded DNA deaminase assay. [Related pubchem assays (depositor defined):AID493012, AID493028]; format: functional
[12] = target: DNA dC->dU-editing enzyme APOBEC-3A (Homo sapiens, UniProt P31941); assay: A3A deaminase inhibition for selectivity – biochemical, dose response (AID 504722); format: functional
DNA dC->dU-editing enzyme APOBEC-3A, sequence (P31941 whole entry): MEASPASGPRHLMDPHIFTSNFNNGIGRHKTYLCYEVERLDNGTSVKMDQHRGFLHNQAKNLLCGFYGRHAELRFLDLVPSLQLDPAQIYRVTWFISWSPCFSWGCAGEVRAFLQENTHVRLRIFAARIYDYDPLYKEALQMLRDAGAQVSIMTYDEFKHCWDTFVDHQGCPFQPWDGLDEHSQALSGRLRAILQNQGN

## Cc1cc(NC(=O)CCc2ccc(C)o2)no1
[1]
  IC50: > 100 µM (not active)
Protein skinhead-1
  IC50: > 100 µM (inactive)
[2]
  IC50: > 100 µM (inactive)
[3]
  IC50: > 100 µM (not active)
[4]
  IC50: > 100 µM (inactive)

## CCOC(=O)C1=C(C)N=C(SCC(=O)O)NC1c1ccccc1 (stereo unspecified)
[5]
  EC50: > 79.4 µM (not active)
[6]
  EC50: > 79.4 µM (not active)
[7]
  EC50: > 79.4 µM (not active)

## O=C(Nc1cnc2ccccc2c1)c1ccco1
Estrogen receptor
  IC50: > 50 µM (not active)

## O=c1cc(-c2ccc(Cl)cc2)[nH][nH]1
Aspartyl aminopeptidase
  IC50: > 73.5 µM (not active)
[8]
  IC50: 57 µM (active)
Leucine aminopeptidase
  IC50: < 1 µM (active)
Procathepsin L
  IC50: > 59.6 µM (not active)
[9]
  IC50: 67.7 µM (inactive)
[10]
  AC50: 2.33 µM (active)
Protein RecA
  EC50: 0.527 µM (active)

## COc1ccc(-c2cc(C(F)(F)F)n3ncc(C(=O)NCc4ccco4)c3n2)cc1
Estrogen receptor
  IC50: > 50 µM (not active)

## O=C(O)[C@H](O)c1ccccc1
[1]
  IC50: > 100 µM (not active)
[2]
  IC50: > 100 µM (inactive)
[3]
  IC50: > 100 µM (not active)
[4]
  IC50: > 100 µM (inactive)

## Sc1nc2cc(Cl)ccc2[nH]1
[11]
  IC50: 5.27 µM (active)
[5]
  EC50: > 79.4 µM (not active)
[12]
  IC50: > 100 µM (inactive)
[6]
  EC50: > 79.4 µM (not active)
[7]
  EC50: > 79.4 µM (not active)
